According to patent publication US20040167131A1, “Inhibitors of factor Xa and other serine proteases involved in the coagulation cascade” (Pfizer Inc., priority 2002, published 2004):

Molecular target: T1, human factor Xa (Homo sapiens, UniProt P00742)
T1 construct: purchased Enzyme Research Laboratories
Experiment: Determination of Factor Xa IC50 (cleavage of fluorogenic substrate F-S2765)
Assay type: biochemical
Settings: 3 pM human factor Xa; read-out: FXa 3 pM IC50
Protocol: The ability of compounds to act as inhibitors of human factor Xa catalytic activity was assessed by determination of that concentration of test substance that inhibited by 50% (IC50) the ability of human factor Xa to cleave the fluorogenic substrate F-S2765 (N-α-Z-D-Arg-Gly-Arg-pNA HCl, California Peptide Research). […] The IC50 was determined at 3 pM and/or 30 pM concentrations of human factor Xa (Enzyme Research Laboratories). These concentrations were achieved by diluting a stock solution of human factor Xa in the appropriate amount of buffer containing 10 mM HEPES, 150 mM NaCl, and 0.1% BSA at pH 7.4 (HBSA buffer). Accordingly, 73 μL of the factor Xa/buffer solution was added to 2.5 μL of DMSO-reconstituted compound and incubated for 55 minutes at room temperature. After warming to 37° C. for am additional 5 minutes, 50 μL of rewarmed substrate was added and the IC50 determined by monitoring the increase in absorbance at 390 nm excitation/460 nm emission (455 nm cutoff) in a fluorometric plate reader or 30 minutes.

T1 sequence (P00742 235-488 limits assumed): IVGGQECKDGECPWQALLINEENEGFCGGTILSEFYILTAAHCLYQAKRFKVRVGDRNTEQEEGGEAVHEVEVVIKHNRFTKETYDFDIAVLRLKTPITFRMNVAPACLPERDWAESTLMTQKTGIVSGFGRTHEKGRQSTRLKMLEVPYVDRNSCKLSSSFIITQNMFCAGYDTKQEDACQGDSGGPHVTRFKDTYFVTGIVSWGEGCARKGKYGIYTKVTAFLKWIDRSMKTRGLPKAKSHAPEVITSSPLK
T1 sequence (P00742 41-179 partner limits assumed): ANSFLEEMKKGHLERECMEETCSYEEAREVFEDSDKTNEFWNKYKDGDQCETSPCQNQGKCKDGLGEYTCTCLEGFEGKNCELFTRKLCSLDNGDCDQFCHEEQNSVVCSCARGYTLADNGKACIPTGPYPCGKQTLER

Molecule	IC50 [nM]
CS(=O)(=O)c1ccccc1-c1ccc(NC(=O)C2(NC(=O)Nc3ccc(Cl)cc3)CC2)cc1 [Example 2, 1-[3-(4-Chloro-phenyl)-ureido]-cyclopropanecarboxylic acid (2′-methanesulfonyl-biphenyl-4-yl)-amide]	33
CC(C)(NC(=O)Nc1ccc(Cl)cc1)C(=O)Nc1ccc(-c2ccccc2S(C)(=O)=O)cc1F [Example 7, 2-[3-(4-Chloro-phenyl)-ureido]-N-(3-fluoro-2′-methanesulfonyl-biphenyl-4-yl)-2-methyl-propionamide]	20
CS(=O)(=O)c1ccccc1-c1ccc(NC(=O)C2(NC(=O)Nc3ccc(Cl)cc3)CC2)c(F)c1 [Example 3, 1-[3-(4-Chloro-phenyl)-ureido]-cyclopropanecarboxylic acid (3-fluoro-2′-methanesulfonyl-biphenyl-4-yl)-amide]	22
CS(=O)(=O)c1ccccc1-c1ccc(NC(=O)C2(NC(=O)Nc3ccc(Cl)cc3)CCCCC2)cc1 [Example 10, 1-[3-(4-Chloro-phenyl)-ureido]-cyclohexanecarboxylic acid (2′-methanesulfonyl-biphenyl-4-yl)-amide]	16

Same assay, conditions: 30 pM human factor Xa; compound @ 1 μM

Molecule	FxXa 30 pM, % @ 1 μM [% @ 1 μM]
CN(CC(=O)Nc1ccc(-c2ccccc2S(C)(=O)=O)cc1F)C(=O)N(C)c1ccc(Cl)cc1 [Example 14, 2-[3-(4-Chloro-phenyl)-1,3-dimethyl-ureido]-N-(3-fluoro-2′-methanesulfonyl-biphenyl-4-yl)-acetamide]	18
CN(C(=O)NCC(=O)Nc1ccc(-c2ccccc2S(C)(=O)=O)cc1F)c1ccc(Cl)cc1 [Example 13, 2-[3-(4-Chloro-phenyl)-3-methyl-ureido]-N-(3-fluoro-2′-methanesulfonyl-biphenyl-4-yl)-acetamide]	17
CN(C)CCN(CC(=O)Nc1ccc(-c2ccccc2S(C)(=O)=O)cc1F)C(=O)Nc1ccc(Cl)cc1 [Example 26, 2-[3-(4-Chloro-phenyl)-1-(2-dimethylamino-ethyl)-ureido]-N-(3-fluoro-2′-methanesulfonyl-biphenyl-4-yl)-acetamide]	13.7
CS(=O)(=O)c1ccccc1-c1ccc(NC(=O)CN(Cc2ccccc2)C(=O)Nc2ccc(Cl)cc2)c(F)c1 [Example 27, 2-[1-Benzyl-3-(4-chloro-phenyl)-ureido]-N-(3-fluoro-2′-methanesulfonyl-biphenyl-4-yl)-acetamide]	30

Same assay, conditions: 30 pM human factor Xa; read-out: FxXa 30 pM IC50

Molecule	IC50 [nM]
CN(CC(=O)Nc1ccc(-c2ccccc2S(C)(=O)=O)cc1F)C(=O)Nc1ccc(Cl)cc1 [Example 12, 2-[3-(4-Chloro-phenyl)-1-methyl-ureido]-N-(3-fluoro-2′-methanesulfonyl-biphenyl-4-yl)-acetamide]	20
NS(=O)(=O)c1ccccc1-c1ccc(NC(=O)C2(NC(=O)Nc3ccc(Cl)cc3)CCOCC2)c(F)c1 [Example 16, 4-[3-(4-Chloro-phenyl)-ureido]-tetrahydro-pyran-4-carboxylic acid (3-fluoro-2′-sulfamoyl-biphenyl-4-yl)-amide]	252
NS(=O)(=O)c1ccccc1-c1ccc(NC(=O)C2(NC(=O)Nc3ccc(Cl)cn3)CC2)c(F)c1 [Example 6, 1-[3-(5-Chloro-pyridin-2-yl)-ureido]-cyclopropanecarboxylic acid (3-fluoro-2′-sulfamoyl-biphenyl-4-yl)-amide]	192
CC(C)(NC(=O)Nc1ccc(Cl)cc1)C(=O)Nc1ccc(-c2ccccc2S(N)(=O)=O)cc1F [Example 9]	44
COCCN(CC(=O)Nc1ccc(N2CCCCC2=O)cc1F)C(=O)Nc1ccc(Cl)cc1 [Example 29, 2-[3-(4-Chloro-phenyl)-1-(2-methoxy-ethyl)-ureido]-N-[2-fluoro-4-(2-oxo-piperidin-1-yl)-phenyl]-acetamide]	224
NS(=O)(=O)c1ccccc1-c1ccc(NC(=O)C2(NC(=O)Nc3ccc(Cl)cc3)CC=CC2)c(F)c1 [Example 11, 1-[3-(4-Chloro-phenyl)-ureido]-cyclopent-3-enecarboxylic acid (3-fluoro-2′-sulfamoyl-biphenyl-4-yl)-amide]	66
CC(C)(NC(=O)Nc1ccc(Cl)cn1)C(=O)Nc1ccc(-c2ccccc2S(C)(=O)=O)cc1F [Example 8, 2-[3-(5-Chloro-pyridin-2-yl)-ureido]-N-(3-fluoro-2′-methanesulfonyl-biphenyl-4-yl)-2-methyl-propionamide]	287
NS(=O)(=O)c1ccccc1-c1ccc(NC(=O)C(CO)(CO)NC(=O)Nc2ccc(Cl)cc2)cc1 [Example 15, 2-[3-(4-Chloro-phenyl)-ureido]-3-hydroxy-2-hydroxymethyl-N-(2′-sulfamoyl-biphenyl-4-yl)-propionamide]	29
NS(=O)(=O)c1ccccc1-c1ccc(NC(=O)C2(NC(=O)Nc3ccc(Cl)cc3)CCSCC2)c(F)c1 [Example 17, 4-[3-(4-Chloro-phenyl)-ureido]-tetrahydro-thiopyran-4-carboxylic acid (3-fluoro-2′-sulfamoyl-biphenyl-4-yl)-amide]	65
COCCN(CC(=O)Nc1ccc(-c2ccccc2S(C)(=O)=O)cc1F)C(=O)Nc1ccc(Cl)cc1 [Example 24, 2-[3-(4-Chloro-phenyl)-1-(2-methoxy-ethyl)-ureido]-N-(3-fluoro-2′-methanesulfonyl-biphenyl-4-yl)-acetamide]	26
CS(=O)(=O)c1ccccc1-c1ccc(NC(=O)[C@]2(NC(=O)Nc3ccc(Cl)cc3)C[C@@H]2CO)c(F)c1 [Example 18, (1S,2S)-1-[3-(4-Chloro-phenyl)-ureido]-2-hydroxymethyl-cyclopropanecarboxylic acid (3-fluoro-2′-methanesulfonyl-biphenyl-4-yl)-amide]	21
O=C(Nc1ccc(Cl)cc1)N[C@@]1(C(=O)Nc2ccc(N3CCCCC3=O)cc2F)C[C@@H]1CO [Example 19, (1S,2S)-1-[3-(4-Chloro-phenyl)-ureido]-2-hydroxymethyl-cyclopropanecarboxylic acid [2-fluoro-4-(2-oxo-piperidin-1-yl)-phenyl]-amide]	129
O=C(Nc1ccc(Cl)cc1)N[C@]1(C(=O)Nc2ccc(N3CCCCC3=O)cc2F)C[C@@H]1CO [Example 21, (1R,2S)-1-[3-(4-Chloro-phenyl)-ureido]-2-hydroxymethyl-cyclopropanecarboxylic acid [2-fluoro-4-(2-oxo-piperidin-1-yl)-phenyl]-amide]	140
CS(=O)(=O)c1ccccc1-c1ccc(NC(=O)C2(NC(=O)Nc3ccc(Cl)cc3)CCN(C(=O)OCc3ccccc3)C2)c(F)c1 (stereo not shown) [Example 22, 3-[3-(4-Chloro-phenyl)-ureido]-3-(3-fluoro-2′-methanesulfonyl-biphenyl-4-ylcarbamoyl)-pyrrolidine-1-carboxylic acid benzyl ester]	175
CC(C)CN(CC(=O)Nc1ccc(-c2ccccc2S(C)(=O)=O)cc1F)C(=O)Nc1ccc(Cl)cc1 [Example 25, 2-[3-(4-Chloro-phenyl)-1-isobutyl-ureido]-N-(3-fluoro-2′-methanesulfonyl-biphenyl-4-yl)-acetamide]	105
COc1ccc(CN(CC(=O)Nc2ccc(-c3ccccc3S(C)(=O)=O)cc2F)C(=O)Nc2ccc(Cl)cc2)cc1 [Example 28, 2-[3-(4-Chloro-phenyl)-1-(4-methoxy-benzyl)ureido]-N-(3-fluoro-2′-methanesulfonyl-biphenyl-4-yl)-acetamide]	80
CS(=O)(=O)c1ccccc1-c1ccc(NC(=O)C2(NC(=O)Nc3ccc(Cl)cn3)CC2)c(F)c1 [Example 4, 1-[3-(5-Chloro-pyridin-2-yl)-ureido]-cyclopropanecarboxylic acid (3-fluoro-2′-methanesulfonyl-biphenyl-4-yl)-amide]	255
NS(=O)(=O)c1ccccc1-c1ccc(NC(=O)C2(NC(=O)Nc3ccc(Cl)cc3)CC2)c(F)c1 [Example 5, 1-[3-(4-Chloro-phenyl)-ureido]-cyclopropanecarboxylic acid (3-fluoro-2′-sulfamoyl-biphenyl-4-yl)-amide]	36
CS(=O)(=O)c1ccccc1-c1ccc(NC(=O)[C@@]2(NC(=O)Nc3ccc(Cl)cc3)C[C@@H]2CO)c(F)c1 [Example 20, (1R,2S)-1-[3-(4-Chloro-phenyl)-ureido]-2-hydroxymethyl-cyclopropanecarboxylic acid (3-fluoro-2′-methanesulfonyl-biphenyl-4-yl)-amide]	35

System: not given
Experiment: not given
Settings: models of arterial and venous thrombosis; cited from earlier work

Molecule	antithrombotic activity
Antistasin: a potent inhibitor of blood coagulation factor Xa from the Mexican leech, Haementeria officinalis (protein, UniProt P15358 18-136, looked up) Antistasin: QGPFGPGCEEAGCPEGSACNIITDRCTCSGVRCRMHCPHGFQRSRYGCEFCKCRLEPMKATCDISECPEGMMCSRLTNKCDCKIDINCRKTCPNGLKRDKLGCEYCECRPKRKLIPRLS	displays antithrombotic activity
